The species named for test [1] is Homo sapiens. The test can be described thus: Selectivity ratio of IC50 for displacement of [3H]SR141716A from membrane bound human CB1 receptor to IC50 for displacement of [3H]CP55940 from membrane bound human CB2 receptor.
In test [2] the target is T1, Cannabinoid receptor 1 (Homo sapiens, UniProt P21554). Nature of the test: Displacement of [3H]SR141716A from membrane bound human CB1 receptor at 10 uM after 1 hr by beta scintillation counting method relative to control. (In general: Displacement assays read how much labelled ligand stays bound in the presence of the test substance.)
Test [3] addresses T1, Cannabinoid receptor 1. Nature of the test: Displacement of [3H]SR141716A from membrane bound human CB1 receptor at 100 uM after 1 hr by beta scintillation counting method relative to control.
Test [4] concerns the target T2, Cannabinoid receptor 2 (Homo sapiens, UniProt P34972). The test can be described thus: Displacement of [3H]CP55940 from membrane bound human CB2 receptor at 10 uM after 1 hr by beta scintillation counting method relative to control.
For test [5], the species on record is Homo sapiens. Nature of the test: Selectivity ratio of compound effect for displacement of [3H]CP55940 from membrane bound human CB2 receptor at 10 uM to compound effect for displacement of [3H]SR141716A from membrane bound human CB1 receptor at 10 uM.
Test [6] has as its target T2, Cannabinoid receptor 2. The test can be described thus: Displacement of [3H]CP55940 from membrane bound human CB2 receptor after 1 hr by beta scintillation counting method.
The target in test [7] is T1, Cannabinoid receptor 1. The test can be described thus: Displacement of [3H]SR141716A from membrane bound human CB1 receptor after 1 hr by beta scintillation counting method.
Test [8] concerns the target T2, Cannabinoid receptor 2. The test can be described thus: Displacement of [3H]CP55940 from membrane bound human CB2 receptor at 100 uM after 1 hr by beta scintillation counting method relative to control.
For test [9], the species on record is Homo sapiens. Nature of the test: Selectivity ratio of compound effect for displacement of [3H]SR141716A from membrane bound human CB1 receptor at 100 uM to compound effect for displacement of [3H]CP55940 from membrane bound human CB2 receptor at 100 uM.

T2 sequence (P34972 whole entry): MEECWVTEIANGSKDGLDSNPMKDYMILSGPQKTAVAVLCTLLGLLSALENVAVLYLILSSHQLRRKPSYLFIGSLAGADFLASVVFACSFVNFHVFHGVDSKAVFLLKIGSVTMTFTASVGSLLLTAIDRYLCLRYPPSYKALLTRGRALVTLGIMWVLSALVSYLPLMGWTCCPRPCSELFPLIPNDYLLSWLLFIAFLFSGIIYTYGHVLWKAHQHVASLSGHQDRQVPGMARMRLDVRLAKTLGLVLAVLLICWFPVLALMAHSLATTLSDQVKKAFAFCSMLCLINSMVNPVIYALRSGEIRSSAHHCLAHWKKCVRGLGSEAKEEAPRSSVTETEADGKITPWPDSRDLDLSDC
T1 sequence (P21554 whole entry): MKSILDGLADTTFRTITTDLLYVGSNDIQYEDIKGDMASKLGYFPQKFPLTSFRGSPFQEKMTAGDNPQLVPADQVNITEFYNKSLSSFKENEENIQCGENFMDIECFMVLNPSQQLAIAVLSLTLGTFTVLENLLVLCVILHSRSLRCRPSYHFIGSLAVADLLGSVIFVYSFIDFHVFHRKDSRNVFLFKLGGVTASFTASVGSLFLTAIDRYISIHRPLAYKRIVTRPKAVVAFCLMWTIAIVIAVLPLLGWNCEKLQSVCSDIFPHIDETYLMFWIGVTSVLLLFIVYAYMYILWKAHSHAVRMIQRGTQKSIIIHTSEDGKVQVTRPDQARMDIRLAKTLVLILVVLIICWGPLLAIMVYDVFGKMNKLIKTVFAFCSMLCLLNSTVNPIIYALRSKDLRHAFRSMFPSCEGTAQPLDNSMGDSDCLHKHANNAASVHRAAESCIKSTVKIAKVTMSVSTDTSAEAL

As usually defined, the inhibition is the drop in the measured response relative to a control, in per cent. Broadly, the IC50 is the concentration that gives 50% inhibition. Read a high IC50 as weaker potency in that assay. Regarding `O=C(c1cccc2ccccc12)c1ccc(OCCCCO)c2ccccc12`, the Ratio IC50 in test [1] worked out at 3.55. The inhibition in test [2] is 31.2%; in test [3] it was 72%; in test [4] it was 91.7%; in test [8], 89.9%. The Selectivity ratio in [5] was determined as 2.93. Further, the figures for the IC50 in test [6] and in [7] were 5.05 µM and 17.9 µM, respectively.

Take `O=C(c1cccc2ccccc12)c1ccc(OCCCCCCO)c2ccccc12`: the figures for the inhibition in [2] and in test [4] were 42.6% and 46.9%, respectively. Besides, the Selectivity ratio in test [5] stood at 1.1. For the same compound, the 50% inhibitory concentration (IC50) in test [6] and in test [7] was above 10 µM each time.

In the case of `O=C(O)CCCOc1ccc(C(=O)c2cccc3ccccc23)c2ccccc12`, the inhibition stood at 16% in [3] and 5.36% in test [8]. Moreover, the half-maximal inhibitory concentration (IC50) in test [6] and in [7] was above 100 µM each time. Further, the Selectivity ratio in test [9] was found to be 2.99.

On to `COC(=O)CCCCOc1ccc(C(=O)c2cccc3ccccc23)c2ccccc12`, for which, in test [1], the Ratio IC50 is above 2.1. Besides, the inhibition was 4.44% in [2], 36.5% in test [3], 11.9% in test [4] and 85.6% in [8]. The Selectivity ratio in [5] came out at 2.69. The concentration for half-maximal inhibition (IC50) was 47.7 µM in [6] and above 100 µM in test [7].

Regarding `O=C(O)CCCCOc1ccc(C(=O)c2cccc3ccccc23)c2ccccc12`, in test [1], the Ratio IC50 is above 7.92. The inhibition in [2] amounted to 13%; in test [3], 20.5%; in test [4] it was 36.6%; in test [8] it was 52.1%. Further, the Selectivity ratio in test [5] was 2.81. The half-maximal inhibitory concentration (IC50) in [6] is 12.6 µM; in test [7], above 100 µM.

For the compound `COC(=O)CCCOc1ccc(C(=O)c2cccc3ccccc23)c2ccccc12`, the Ratio IC50 in test [1] stood at 8.36. For the same compound, the inhibition in test [2] came out at 43.1%; in test [3], 68.8%; in test [4], 96.9%; in test [8] it was 101%. Moreover, in test [5], the Selectivity ratio amounted to 2.25. Moreover, the IC50 in test [6] is 1.69 µM; in [7], 14.1 µM.

Consider `O=C(c1cccc2ccccc12)c1ccc(OCCCO)c2ccccc12`, for which the Ratio IC50 in test [1] is 6.81. The inhibition in test [2] came to 21.3%; in test [3], 55.6%; in test [4] it was 37.4%; in test [8] it was 78.5%. The Selectivity ratio in test [5] came to 1.76. Also, the figures for the half-inhibitory concentration (IC50) in test [6] and in test [7] were 14.7 µM and 100 µM, respectively.

As for `O=C(c1cccc2ccccc12)c1ccc(OCCCCCO)c2ccccc12`, the Ratio IC50 in test [1] is above 9.26. Moreover, the inhibition in [2] was 35.8%; in [4] it was 75.3%. For the same compound, the Selectivity ratio in test [5] stood at 2.1. The 50% inhibitory concentration (IC50) in test [6] was 1.08 µM; in test [7], above 10 µM.

Turning to `CCCCCOc1ccc(C(=O)c2cccc3ccccc23)c2ccccc12`, the inhibition in [2] and in [4] was 64.2% each time. This compound yielded an IC50 in test [6] of 5.3 µM.

Values taken from ChEMBL document CHEMBL4152361, “Synthesis of oxidative metabolites of CRA13 and their analogs: Identification of CRA13 active metabolites and analogs thereof with selective CB2R affinity” (Bioorg Med Chem, 2018).
